# Reference: the supplement of paper PMC10307832
# Compound: CCOC(=O)CCNc1cc(N2CCc3ccccc3CC2)nc(-c2ccccn2)n1 [GSK-J4] + N=C(N)NC(=N)NCCc1ccccc1 [Phenformin] (partner 250 µM)
# Assay: relative viability (nuclei count vs DMSO), 5 days (fraction); higher = more cells survive
# Conditions: first compound 50 µM
# Method in brief: (§1)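 Cells from lung cancer lines were seeded into 1536-well plates and, one day later, dosed by pin tool. Treatments were either a single drug or a fixed dose of an anchor drug with five library-drug doses (not always all listed) in √10 steps. After 5 days, nuclei were stained in a one-step fixation (final 0.05% Triton X-100, 1% formaldehyde, 1 ug/ml Hoechst) and counted on 4× images, and relative viability is the treated-to-vehicle nuclei ratio, as the median of duplicate plates.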
row,Cell Line,relative viability
1,LC-2-ad,0.432
2,HCC-827,0.398
3,A549,0.103
4,NCI-H596,0.732
5,NCI-H1563,0.656

# Compound: CN1CCC(CC1)OC2=CC(=C(C=C2)NC3=NC=C4C(=N3)N(C(=O)N4C)C5CCCC5)OC [AZ3146] + N=C(N)NC(=N)NCCc1ccccc1 [Phenformin] (partner 250 µM)
# Assay: as above
# Conditions: first compound 0.08 µM
# Method in brief: as §1
row,Cell Line,relative viability
1,NCI-H522,0.818
2,NCI-H1623,0.586
3,PC-14,0.563
4,NCI-H1666,0.592
5,EKVX,0.248
6,NCI-H1755,0.548
7,NCI-H2023,0.403
8,HCC-78,0.421
9,SK-LU-1,0.486
10,PC-3 [JPC-3],0.465
11,LOU-NH91,0.736
12,NCI-H647,0.394
13,NCI-H23,0.823
14,NCI-H2126,0.459
15,ChaGo-K-1,0.581
16,HCC-44,0.118

row,Cell Line,relative viability
1,NCI-H1734,0.393
2,NCI-H650,0.386
3,LK-2,0.397
4,NCI-H2228,0.345
5,NCI-H2342,0.568
6,NCI-H1944,0.168
7,HARA,0.384
8,COR-L23,0.401
9,LCLC-103H,0.317
10,LXF-289,0.535
11,NCI-H358,0.451
12,NCI-H322M,0.82
13,LC-2-ad,0.54
14,HCC-827,0.443
15,NCI-H596,0.672
16,NCI-H1563,0.619

# Same assay, conditions: first compound 0.253 µM
row,Cell Line,relative viability
1,NCI-H522,0.698
2,NCI-H1623,0.534
3,PC-14,0.465
4,NCI-H1666,0.574
5,EKVX,0.196
6,NCI-H1755,0.577
7,NCI-H2023,0.428
8,HCC-78,0.557
9,SK-LU-1,0.512
10,PC-3 [JPC-3],0.476
11,LOU-NH91,0.565
12,NCI-H647,0.649
13,NCI-H23,0.805
14,EPLC-272H,0.247
15,NCI-H2126,0.508
16,ChaGo-K-1,0.452
17,HCC-44,0.124

row,Cell Line,relative viability
1,NCI-H1734,0.373
2,NCI-H650,0.44
3,LK-2,0.392
4,NCI-H2228,0.389
5,NCI-H2342,0.565
6,NCI-H1944,0.18
7,HARA,0.415
8,COR-L23,0.44
9,LCLC-103H,0.32
10,LXF-289,0.49
11,NCI-H358,0.283
12,NCI-H322M,0.811
13,LC-2-ad,0.557
14,HCC-827,0.372
15,A549,0.153
16,NCI-H596,0.738
17,NCI-H1563,0.645

# Same assay, conditions: first compound 0.8 µM
row,Cell Line,relative viability
1,NCI-H522,0.757
2,NCI-H1623,0.591
3,NCI-H1666,0.53
4,EKVX,0.234
5,NCI-H1755,0.57
6,NCI-H2023,0.349
7,HCC-78,0.566
8,SK-LU-1,0.424
9,PC-3 [JPC-3],0.517
10,LOU-NH91,0.768
11,NCI-H647,0.59
12,NCI-H23,0.832
13,EPLC-272H,0.288
14,NCI-H2126,0.52
15,ChaGo-K-1,0.474
16,HCC-44,0.0902
17,NCI-H1734,0.406

row,Cell Line,relative viability
1,NCI-H650,0.445
2,LK-2,0.292
3,NCI-H2228,0.351
4,NCI-H2342,0.615
5,NCI-H1944,0.188
6,HARA,0.436
7,COR-L23,0.416
8,LCLC-103H,0.348
9,LXF-289,0.524
10,NCI-H358,0.319
11,NCI-H322M,0.715
12,LC-2-ad,0.614
13,HCC-827,0.401
14,A549,0.168
15,NCI-H596,0.722
16,NCI-H1563,0.596

# Same assay, conditions: first compound 2.53 µM
row,Cell Line,relative viability
1,NCI-H522,0.631
2,NCI-H1623,0.607
3,PC-14,0.579
4,NCI-H1666,0.608
5,EKVX,0.25
6,NCI-H1755,0.601
7,NCI-H2023,0.38
8,HCC-78,0.81
9,SK-LU-1,0.607
10,PC-3 [JPC-3],0.521
11,LOU-NH91,0.761
12,NCI-H647,0.465
13,NCI-H23,0.789
14,EPLC-272H,0.345
15,NCI-H2126,0.538
16,ChaGo-K-1,0.426
17,HCC-44,0.364

row,Cell Line,relative viability
1,NCI-H1734,0.426
2,NCI-H650,0.526
3,LK-2,0.409
4,NCI-H2228,0.321
5,NCI-H2342,0.512
6,NCI-H1944,0.19
7,HARA,0.41
8,COR-L23,0.526
9,LCLC-103H,0.363
10,LXF-289,0.528
11,NCI-H358,0.313
12,NCI-H322M,0.833
13,LC-2-ad,0.628
14,HCC-827,0.416
15,A549,0.131
16,NCI-H596,0.735
17,NCI-H1563,0.639

# Same assay, conditions: first compound 8 µM
row,Cell Line,relative viability
1,NCI-H522,0.62
2,NCI-H1623,0.565
3,PC-14,0.314
4,NCI-H1666,0.528
5,EKVX,0.231
6,NCI-H1755,0.569
7,NCI-H2023,0.217
8,HCC-78,0.551
9,SK-LU-1,0.345
10,PC-3 [JPC-3],0.461
11,LOU-NH91,0.76
12,NCI-H647,0.32
13,NCI-H23,0.8
14,EPLC-272H,0.317
15,NCI-H2126,0.452
16,ChaGo-K-1,0.333
17,HCC-44,0.273
18,NCI-H1734,0.376
19,NCI-H650,0.461
20,LK-2,0.295
21,NCI-H2228,0.277
22,NCI-H2342,0.51
